Assay results: patent publication US20100234385A1 (Kaneka Corporation, priority 2006, published 2010)

Assays:
[1] = BH4 concentration in the brain after oral administration for 3 consecutive days to hph-1 mice; conditions: 5 mg/kg oral, 3 consecutive days at 24-hour intervals, 2.5 hours after final dosing, versus non-dose group
Experimental: The mice were biopsied 2.5 hours after the final dosing, their brains were excised and BH4 levels were quantified in the same manner as Example 1.

[2] = Sawabe et al. 2004, cited from earlier work
[3] = tested on: melanocytes; experiment: Inhibitory effect on melanocytes in vitro; type: cell-based

| Compound | intracerebral BH4 concentrations [1] | time of sharp peak of BH4 after administration [2] [h] | time until BH4 concentration returns to the original level ([2]; after administration of BH4) | effects on melanocytes in vitro [3] |
| --- | --- | --- | --- | --- |
| C[C@H](O)[C@H](O)[C@H]1CNc2nc(N)[nH]c(=O)c2N1 [BH4, L-erythro-5,6,7,8-tetrahydrobiopterin] | changes are not observed | 0.5 to 1 | about 4 hours | – |
| 6-(L-erythro-1,2-dihydroxypropyl)-pterin or 7-(L-erythro-1,2-dihydroxypropyl)-pterin [biopterin] | – | – | – | inhibitory effects |
